Results reported in patent publication US7101863B2, “Pharmaceutical compositions with wound healing or anti-complementary activity comprising a dextran derivative” (Biodex, priority 2000, dated 2006).

Tests used:
gastric mucosa = assay: In-vivo gastric healing, macroscopic impairment of the gastric mucosa; design: species or system Sprague-Dawley rats; key: 0: Normal mucosa.; +: Small superficial hemorrhagic striae.; ++: Short and broad superficial hemorrhagic striae.; +++: Long and broad superficial hemorrhagic striae.; ++++: Perforations; conditions: oral, dextran derivative and dextran T40 50 μg/kg, prostaglandin E2 10 μg/kg
Description: The animals employed are 12-week-old male Sprague-Dawley rats weighing from 200 to 250 g. Three batches of animals are used, with each consisting of 4 animals:
the first batch is treated with a dextran derivative of the general formula DMCaBbSuc in which a=0.75, b=0.25 and c=0.15, at the rate of 50 μg/kg,
the second batch serves as the control, with the animals being treated with a native dextran T40 (Pharmacia Fine Chemical; weight average molecular mass Mw: 37 500 g/mol; Mw/Mn: 1.7, with Mn representing the number average mass), at the rate of 50 μg/kg,
This batch therefore corresponds to a positive control.
The dextran derivative, the native dextran and the prostaglandin E2 are dissolved in physiological saline and administered orally to the animals.
The animals are sacrificed at different stages of healing, namely on D2, D4, D7 and D14, with the healing process being considered on days from the date on which the gastric irritation is induced. The gastric mucosa is recovered with a view to carrying out two studies:
quantification of the impairment of the gastric mucosa,
Table V represents a compilation of the results of the macroscopic study of the inflammatory reaction in the gastric mucosa, with the study being effected in accordance with the following scale: […]

right eye = assay: In-vivo ocular healing after sodium hydroxide burn, histological studies; design: species or system New Zealand white rabbits; conditions: 100 μl three times daily; FGF-2 0.1 ng and/or dextran derivative 50 μg/ml
Description: 20 New Zealand white rabbits (10 males and 10 females) are used, with the rabbits being 1 year old and weighing from 2.5 to 3 kg; a 5.5 mm filter soaked in a 1N solution of sodium hydroxide was placed for 60 seconds on the right eye of these rabbits, which were then divided up into 4 groups of 5 animals each:
the first group is treated three times daily with 100 μl of a solution containing 0.1 ng of FGF-2 (Fibroblast Growth Factor-2);
the second group is treated three times daily with 100 μl of an isotonic solution containing 50 μg of a dextran derivative/ml of the general formula DMCaBbSuc in which a=0.75, b=0.31 and c=0.34;
the third group is treated three times daily with 100 μl of a solution containing 0.1 ng of FGF-2 and 50 μg of the above-mentioned dextran derivative/ml;
the fourth group (control group) is treated three times daily with 100 μl of a PBS buffer solution.
The speed of ocular healing in the four groups of animals is compared by means of histological studies carried out on days D1, D2, D4, D6 and D8.

complement system = assay: In-vivo anticomplementary action, hemolytic CH50 assay on rat serum; design: species or system Sprague-Dawley rats; conditions: injection with Sephadex G25 20 μg and 50 μg of test substance
Source text: The anticomplementary action is studied by means of a hemolytic or CH50 assay, in accordance with a protocol in which the serum of the rats, withdrawn at different time intervals, is activated by sheep erythrocytes which are sensitized by rabbit antibodies directed against sheep red blood cells (EA). By definition, one CH50 unit corresponds to the concentration of complement proteins (contained in one milliliter of serum) which is capable of inducing the hemolysis of 50% of 2×10^7 activated EAs in a reaction medium where the volume, the temperature and the reaction time are kept constant. The number of hemolytic sites per cell is calculated.

CCCCC[C@H](O)/C=C/[C@H]1[C@H](O)CC(=O)[C@@H]1C/C=C\CCCC(=O)O [Prostaglandin E2, prostaglandin E2]
Impairment of the gastric mucosa (gastric mucosa; D2): ++
Impairment of the gastric mucosa (gastric mucosa; D4): +
Impairment of the gastric mucosa (gastric mucosa; D7): +
Impairment of the gastric mucosa (gastric mucosa; D14): 0

FGF-2: Fibroblast Growth Factor-2
Duration of ocular healing (mean for each group of animals) (right eye): 5 days

native dextran
Inhibition of the activation of the complement (CH50) (complement system): did not have any effect
